{
  "source": "paper PMC4038355",
  "about": "(Molecular microbiology, 2014)",
  "molecular_target": "T1, TstT (LVIS_0852) (Levilactobacillus brevis, UniProt Q03S28)",
  "T1 sequence (Q03S28 1-120)": "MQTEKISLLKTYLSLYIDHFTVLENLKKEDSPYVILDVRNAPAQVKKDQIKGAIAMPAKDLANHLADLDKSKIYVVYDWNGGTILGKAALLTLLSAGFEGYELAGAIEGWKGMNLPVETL",
  "type": "biochemical",
  "data": [
    {"smiles": "O=S(O)O", "note": "[sulfite]", "values": [
      {"measurement": "% decrease at 100 μM", "value": 40, "unit": "%"}
    ]}
  ]
}
